Source: ChEMBL document CHEMBL1201862, “PubChem BioAssay data set” (2004)
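Exposure lasted 48 hours, with cells grown in 96-well plates and compounds tested at five concentrations. GI50 marks 50% less growth.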 Calls of active or inactive are those of the source. Cut-off read from the data, not from the text of the source: active = GI50 up to about 1.1 µM and inactive = higher.

Tests used:
Assay in all cases: NCI tumour cell line growth inhibition, 48 h
SF-268 = tested on: SF-268
NCI-H226 = tested on: NCI-H226
SNB-19 = tested on: SNB-19
A549 = tested on: A549
HCC 2998 = tested on: HCC 2998
M14 = tested on: M14
HOP-62 = tested on: HOP-62
CCRF-CEM = tested on: CCRF-CEM
HT-29 = tested on: HT-29
SW-620 = tested on: SW-620
UACC-62 = tested on: UACC-62
UO-31 = tested on: UO-31
U-251 = tested on: U-251
SF-539 = tested on: SF-539
SK-MEL-5 = tested on: SK-MEL-5
K562 = tested on: K562
LOX IMVI = tested on: LOX IMVI
KM12 = tested on: KM12

Measured: GI50

COc1ccc(-c2cc(=O)c3c(O)c(OC)c(O)c(OC)c3o2)cc1OC
inactive: SF-268 90.2 µM | NCI-H226 22.2 µM | SNB-19 > 100 µM | A549 72.1 µM | HCC 2998 > 100 µM | M14 > 100 µM | HOP-62 44.2 µM | CCRF-CEM 33.6 µM | HT-29 > 100 µM | SW-620 > 100 µM | UACC-62 47.4 µM | UO-31 21.5 µM | U-251 49.9 µM | SF-539 46.2 µM | SK-MEL-5 > 100 µM | K562 45.9 µM

CCc1cc2c(Nc3ccccc3)c3c(nc2s1)CCCC3
inactive: SF-268 76.6 µM | SNB-19 > 100 µM | A549 8.53 µM | HCC 2998 > 100 µM | M14 > 100 µM | HOP-62 79.4 µM | CCRF-CEM 20.9 µM | LOX IMVI 11.4 µM | SW-620 80.5 µM | UACC-62 15.3 µM | UO-31 3.99 µM | U-251 22 µM | KM12 > 100 µM | SF-539 43 µM | SK-MEL-5 4.79 µM | K562 3.41 µM

Cc1ccccc1C(=O)Oc1ccc(Oc2ccccc2)cc1
inactive: SF-268 > 100 µM | NCI-H226 > 100 µM | SNB-19 > 100 µM | A549 > 100 µM | HCC 2998 86.1 µM | M14 > 100 µM | HOP-62 > 100 µM | CCRF-CEM 42.7 µM | HT-29 > 100 µM | SW-620 73.6 µM | UACC-62 > 100 µM | UO-31 20.3 µM | U-251 > 100 µM | KM12 > 100 µM | SF-539 > 100 µM | SK-MEL-5 > 100 µM | K562 > 100 µM

Cc1ccc(Oc2ccc([N+](=O)[O-])cc2[N+](=O)[O-])c(C)c1
inactive: NCI-H226 44.9 µM | A549 34.1 µM | HCC 2998 > 100 µM | M14 48.6 µM | HOP-62 49.2 µM | CCRF-CEM 30.1 µM | HT-29 25.6 µM | SW-620 47.1 µM | UACC-62 45 µM | UO-31 40.5 µM | U-251 34.8 µM | KM12 > 10 µM | SF-539 58.7 µM | SK-MEL-5 21.1 µM | K562 30.5 µM

COc1cccc([C@@]2(O)c3c(ccc(O)c3OC)[C@H]2OC)c1OC
inactive: SF-268 33.8 µM | NCI-H226 43.5 µM | SNB-19 74 µM | A549 37 µM | HCC 2998 25.7 µM | M14 30.5 µM | HOP-62 60.5 µM | CCRF-CEM 45.4 µM | HT-29 28.1 µM | SW-620 28.6 µM | UACC-62 > 10 µM | UO-31 36.4 µM | U-251 51.4 µM | KM12 24.9 µM | SK-MEL-5 37.9 µM | K562 44.5 µM

O=[N+]([O-])/C=C/c1ccc(Cl)cc1Cl
inactive: SF-268 21.3 µM | NCI-H226 17.6 µM | SNB-19 17.8 µM | A549 21 µM | HCC 2998 15.5 µM | M14 11.7 µM | HOP-62 14.2 µM | CCRF-CEM 3.62 µM | HT-29 5.77 µM | SW-620 12.1 µM | UACC-62 15.7 µM | UO-31 16.2 µM | U-251 5.66 µM | KM12 14.7 µM | SF-539 17.1 µM | SK-MEL-5 15.6 µM | K562 3.33 µM

CCCC1=C(CC)C(C(=O)Nc2c(C)cccc2C)=NC(S)N1 (stereo not given)
inactive: SF-268 > 100 µM | NCI-H226 > 100 µM | SNB-19 > 100 µM | A549 > 100 µM | M14 > 100 µM | HOP-62 > 100 µM | CCRF-CEM > 100 µM | HT-29 > 100 µM | SW-620 > 100 µM | UACC-62 > 100 µM | UO-31 > 100 µM | U-251 > 100 µM | KM12 > 100 µM | SF-539 > 100 µM | SK-MEL-5 > 100 µM | K562 > 100 µM

CN1N=C(Nc2ccccc2)Sc2c1cnn(-c1ccccc1)c2=O
inactive: SNB-19 96.4 µM | A549 > 100 µM | HCC 2998 > 100 µM | M14 > 100 µM | HOP-62 > 100 µM | CCRF-CEM > 100 µM | LOX IMVI 87.3 µM | HT-29 > 100 µM | SW-620 > 100 µM | UACC-62 40 µM | UO-31 83.2 µM | U-251 > 100 µM | KM12 > 100 µM | SF-539 > 100 µM | K562 30.6 µM

COc1ccc(C2N3CCCCC3[C@@H]3c4[nH]c5ccccc5c4CCN23)c(OC)c1 (stereo not given in full)
inactive: SF-268 21.1 µM | SNB-19 39.4 µM | A549 40.8 µM | M14 16.8 µM | HOP-62 84.7 µM | CCRF-CEM 26.9 µM | HT-29 15.8 µM | SW-620 33.7 µM | UACC-62 16.3 µM | UO-31 23.5 µM | U-251 28.4 µM | SF-539 18.5 µM | SK-MEL-5 16.3 µM | K562 26.7 µM

CCC12CCCN(Cc3ccccc3)C1c1c(n(C)c3ccccc13)C(C(=O)OC)C2 (stereo not given)
inactive: SF-268 175 µM | NCI-H226 66.2 µM | SNB-19 72.9 µM | A549 > 239 µM | HCC 2998 164 µM | HOP-62 129 µM | CCRF-CEM 143 µM | LOX IMVI 158 µM | HT-29 73.1 µM | SW-620 115 µM | UACC-62 > 239 µM | U-251 117 µM | KM12 85.3 µM | SF-539 126 µM | SK-MEL-5 43.8 µM | K562 93.5 µM

Cc1ccc(C)c(NC(=O)CC2SC(Nc3ccccc3Cl)=NC2=O)c1 (stereo not given)
inactive: SF-268 > 100 µM | NCI-H226 > 100 µM | SNB-19 > 100 µM | A549 65.3 µM | HCC 2998 > 100 µM | M14 > 100 µM | HOP-62 > 100 µM | CCRF-CEM 22.1 µM | HT-29 > 100 µM | SW-620 > 100 µM | UACC-62 49.3 µM | UO-31 75.9 µM | U-251 > 100 µM | KM12 > 100 µM | SF-539 > 100 µM | SK-MEL-5 36.1 µM

CCCCCCCCCCCCCCCCCc1nnc(N)o1
inactive: SF-268 > 100 µM | NCI-H226 > 100 µM | SNB-19 > 100 µM | A549 > 100 µM | HCC 2998 > 100 µM | M14 > 100 µM | HOP-62 > 100 µM | LOX IMVI > 100 µM | HT-29 > 100 µM | SW-620 > 100 µM | UACC-62 > 100 µM | UO-31 > 100 µM | U-251 > 100 µM | KM12 > 100 µM | SF-539 > 100 µM | K562 > 100 µM

Nc1cc2c3c(cccc3c1)C(=O)N(CCN1CCN(CCN3C(=O)c4cccc5cc(N)cc(c45)C3=O)CC1)C2=O
inactive: SF-268 91.2 µM | NCI-H226 31.5 µM | SNB-19 76.2 µM | A549 46.3 µM | HCC 2998 > 100 µM | M14 98.9 µM | HOP-62 > 100 µM | CCRF-CEM > 100 µM | HT-29 32 µM | SW-620 38.8 µM | UACC-62 > 100 µM | UO-31 37.9 µM | U-251 > 100 µM | KM12 > 100 µM | SF-539 > 100 µM | SK-MEL-5 > 100 µM | K562 > 100 µM

O=C1OC(c2ccccc2)=N/C1=C\c1cc(Cl)ccc1Cl
inactive: SF-268 66.2 µM | SNB-19 > 100 µM | A549 > 100 µM | HCC 2998 > 100 µM | M14 32.6 µM | HOP-62 > 100 µM | CCRF-CEM 23.9 µM | HT-29 > 100 µM | SW-620 34.9 µM | UACC-62 > 100 µM | UO-31 > 100 µM | U-251 70.8 µM | KM12 74.1 µM | SF-539 72.4 µM | SK-MEL-5 > 100 µM | K562 18.1 µM

COc1cccc(-c2cc(=O)c3cc(C)c(C)c(C(=O)O)c3o2)c1
inactive: SF-268 > 100 µM | SNB-19 > 100 µM | A549 > 100 µM | HCC 2998 > 100 µM | M14 > 100 µM | HOP-62 > 100 µM | CCRF-CEM > 100 µM | LOX IMVI > 100 µM | HT-29 > 100 µM | SW-620 > 100 µM | UACC-62 > 100 µM | UO-31 > 100 µM | U-251 > 100 µM | KM12 > 100 µM | SF-539 > 100 µM | SK-MEL-5 > 100 µM | K562 > 100 µM

CN1CNc2nc(N)n(C)c(=O)c2C1
inactive: SF-268 > 10 µM | NCI-H226 > 10 µM | SNB-19 > 10 µM | A549 > 10 µM | HCC 2998 > 10 µM | M14 > 10 µM | CCRF-CEM > 10 µM | HT-29 > 10 µM | UACC-62 > 10 µM | UO-31 > 10 µM | U-251 > 10 µM | KM12 > 10 µM | SF-539 > 10 µM | K562 > 10 µM

COC(=O)C12CC3CC(C1)CC(C(=O)OC)(C3)C2
inactive: SF-268 > 100 µM | SNB-19 > 100 µM | A549 > 100 µM | HCC 2998 > 100 µM | M14 > 100 µM | HOP-62 > 100 µM | CCRF-CEM > 100 µM | LOX IMVI > 100 µM | HT-29 > 100 µM | SW-620 > 100 µM | UACC-62 > 100 µM | UO-31 > 100 µM | U-251 > 100 µM | KM12 > 100 µM | SF-539 > 100 µM | SK-MEL-5 > 100 µM
